In one data set the target is T1, mouse TGR5 receptor (Mus musculus, UniProt Q80SS6).
T1 construct: host or cells: HEK293-EBNA (293 c18, ATCC CRL10852)
T1 sequence (Q80SS6 1-329): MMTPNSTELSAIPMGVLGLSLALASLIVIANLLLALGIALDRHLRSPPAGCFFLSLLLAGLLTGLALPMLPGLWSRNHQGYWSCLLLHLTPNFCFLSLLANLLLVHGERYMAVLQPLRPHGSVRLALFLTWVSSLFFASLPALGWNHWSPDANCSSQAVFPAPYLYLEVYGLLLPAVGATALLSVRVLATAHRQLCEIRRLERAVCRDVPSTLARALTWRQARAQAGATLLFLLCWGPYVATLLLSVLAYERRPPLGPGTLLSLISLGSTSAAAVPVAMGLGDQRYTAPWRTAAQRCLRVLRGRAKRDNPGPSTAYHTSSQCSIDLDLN
In words: Mouse TGR5 HTRF cAMP production assay (HEK293-EBNA cells, Cisbio cAMP HiRange kit). Particulars: HEK293-EBNA cells overexpressing mouse TGR5, HTRF cAMP assay. Type of data set: cell-based. The procedure, abridged: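 cAMP accumulation was read by competitive HTRF after 1 h room-temperature compound treatment, with a further 1 h conjugate incubation. Cells were mouse TGR5-overexpressing HEK293-EBNA in serum-free DMEM plus 500 μM IBMX. Compounds ran as 12-point half-log series in duplicate, and EC50 values were reported.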

In another data set the test system is Mouse STC-1 cells. As to the kind of experiment: STC-1 GLP-1 assay (GLP-1 secretion). Particulars: Mouse STC-1 cells, GLP-1 secretion, 2 h; read-out: Mouse STC-1 HTRF GLP-1 Activity (EC50). Type of data set: cell-based. As for the experimental part:
Compounds of the present invention were evaluated for their ability to induce GLP-1 production in mouse intestinal neuroendocrine tumor cells.
Mouse STC-1 cells were cultured and maintained in high glucose DMEM (Sigma #5796) supplemented with 15% horse serum, 5% Fetal Bovine Serum (FBS), 1%° penicillin/streptomycin, and 2 mM L-alanine L-glutamine (GlutaMax). Two days prior to analysis of GLP-1 secretion cells were harvested using Accutase (Sigma), spun down then resuspended in high glucose DMEM media containing 2 mM L-alanine L-glutamine (GlutaMax), 10% charcoal-dextran stripped FBS, and 50 μg/mL Gentamicin, at a density of 100,000° cells/mL. 100 μL of cell suspension was added to each well of a 96-well Poly-D-Lysine coated culture plate (Sigma; cat #2382493) and was incubated at 37° C. with 5% CO2.
Compounds were initially diluted in 100% DMSO (12-point serial dilution by half logs) in a 96-well plate and then were further diluted 1:500 in Hanks' Balanced Salt Solution (HBSS) containing protease inhibitor cocktail, DPP-IV inhibitor, and 0.1% fatty acid free bovine serum albumin. On the day of the experiment cells were washed once with HBSS. After wash, 100 μL of test compound was added to each well. The plate was incubated at 37° C. with 5% CO2 for 2° h. Supernatants were collected and GLP-1 secretion was measured using the Cisbio™ Active GLP-1 HTRF Assay Kit (CisBio). Briefly, Anti-GLP-1-d2 conjugate and Anti-GLP-1 Terbium Cryptate conjugate stock solutions were prepared as per kit instructions. The two solutions were pre-mixed and 10 μL were transferred to a 384-well low volume plate (Greiner; cat #784075). 10 μL of collected supernatants were added to wells already containing the conjugate solution. The plate was covered and incubated at room temperature overnight. The plate was read on an Envision™ plate reader (PerkinElmer).
In Table 53, EC50 values were obtained from the STC-1 GLP-1 production assay for compounds of the present invention are summarized.

A further data set has as its target T2, human TGR5 receptor (Homo sapiens, UniProt Q8TDU6).
T2 construct: host or cells: CHO-K1 (hTGR5-CHO)
T2 sequence (Q8TDU6 1-330): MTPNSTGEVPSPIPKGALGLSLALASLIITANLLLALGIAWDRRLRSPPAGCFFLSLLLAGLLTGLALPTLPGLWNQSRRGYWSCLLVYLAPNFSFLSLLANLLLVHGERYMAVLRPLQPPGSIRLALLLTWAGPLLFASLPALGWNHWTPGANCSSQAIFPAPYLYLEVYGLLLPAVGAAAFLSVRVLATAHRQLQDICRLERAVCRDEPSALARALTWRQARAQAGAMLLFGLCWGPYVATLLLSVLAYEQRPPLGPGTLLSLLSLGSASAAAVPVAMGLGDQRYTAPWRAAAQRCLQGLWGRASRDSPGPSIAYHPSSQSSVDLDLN
In words: Human TGR5 cAMP production assay (hTGR5-CHO cells, DiscoveRx cAMP XS+ kit). The note with it: luminescent cAMP assay, read-out: Human TGR5 Lum. cAMP Activity (EC50). Format: cell-based. The procedure, abridged: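 EC50 values come from luminescent enzyme-complementation cAMP detection, read after overnight incubation. Beforehand, hTGR5-expressing CHO-K1 cells with IBMX and anti-cAMP antibody were exposed 1 h at room temperature to serially diluted (half-log) compounds.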

Data set [1] can be described thus: Pharmacokinetic profile in mice after oral gavage. Format: in vivo, mouse. On the set-up: unit: ng/mL. Particulars: fasted male Hilltop mice, 10 mg/kg oral gavage, plasma. As for the experimental part: Pharmacokinetic Profile in Mice
In this series of studies, the pharmacokinetic profile characteristics of compounds of the present invention were evaluated. The plasma concentration levels of the compounds were monitored in the blood stream (i.e., plasma) after oral gavage using Cmax, and area under the curve (AUC).
8 week old male Hilltop mice were fasted overnight. Animals were randomized into groups (n=9) by body weight. Mice were dosed with 10 mg/kg compound (in 20% PEG400/80% 0.5% carboxymethylcellulose (medium viscosity)+0.25% Tween-80) at a volume of […] through oral gavage. Blood was collected via orbital bleeding at 0, 0.25, 0.5, 1, 2, and 4 h post-dose, with no one mouse having more than 3 blood draws. Blood was collected in EDTA coated tubes. Samples were stored at −20° C. until analysis.
Quantitation of compound levels in plasma was accomplished by LC-MS/MS analysis. Standard curve and quality control samples were prepared in male CD-1 mouse plasma containing EDTA K^2+ as an anticoagulant at final concentrations ranging from 500 to 0.1 ng/mL. The plasma samples, calibration curve standards, and quality control samples were prepared in an identical method in a 96-well deep plate (1 mL) with a quenching solution (1:1 mixed acetonitrile:methanol containing the internal standard Reserpine @ 400 ng/mL). Low volume samples were supplemented with CD-1 mouse plasma. The plate was mixed on multi-tube vortexer for 1 min and centrifuged at 4000 rpm for 30 min at 4° C. (Sorvall® Super T21) before LC-MS/MS analysis. LC conditions were developed and optimized based on each compound as needed. The outlet of the column was coupled to AB Sciex 4000 QTrap Mass Spectrometer (AB Sciex, Brugg Switzerland). Detection was carried out using multiple reaction monitoring mode with positive-ion detection focusing. The pharmacokinetic parameters were derived from the plasma-time data and calculated using the standard non-compartmental method with WinNonlin (Pharsight, Mountain View, Calif.) or PK Solver (Comp. Meth. Prog. Biomed. (2010), 99, 306-314).
Values reported are the mean plasma concentration of three mice. […]

Where two headings read alike, the source gives them in different places. Where only a bound is given, the exact number is not on record here.

As for `CN(C)CCC1CCN(c2cc(N3CC[C@H]3C(=O)NCCc3ccc(C#N)cc3)nc(C(F)(F)F)n2)CC1` [Compound 228, (S)-N-(4-cyanophenethyl)-1-(6-(4-(2-(dimethylamino)ethyl)piperidin-1-yl)-2-(trifluoromethyl)pyrimidin-4-yl)azetidine-2-carboxamide], the concentration for a half-maximal effect (EC50) is under 100 nM on mouse TGR5 receptor, 100 to 999 nM with Mouse STC-1 cells and under 100 nM on human TGR5 receptor.

Regarding `CCOC(=O)CCNC(=O)NCCC1CCN(c2cc(N3CCC[C@@H](C(=O)NCCc4ccc(C#N)cc4)C3)nc(C(F)(F)F)n2)CC1` [Compound 346, (R)-ethyl 3-(3-(2-(1-(6-(3-((4-cyanophenethyl)carbamoyl)piperidin-1-yl)-2-(trifluoromethyl)pyrimidin-4-yl)piperidin-4-yl)ethyl)ureido)propanoate], the concentration giving a half-maximal response (EC50) at mouse TGR5 receptor, in the data set with Mouse STC-1 cells and at human TGR5 receptor was under 100 nM each time.

Take `O=C(CCCC1CCN(c2cc(N3CCC[C@H]3C(=O)NCCc3cccc(Cl)c3Cl)nc(C(F)(F)F)n2)CC1)NCS(=O)(=O)O` [Compound 138, (S)-(4-(1-(6-(2-((2,3-dichlorophenethyl)carbamoyl)pyrrolidin-1-yl)-2-(trifluoromethyl)pyrimidin-4-yl)piperidin-4-yl)butanamido)-methanesulfonic acid]: the EC50 on mouse TGR5 receptor and on human TGR5 receptor was under 100 nM in each case. The Cmax in data set [1] (mouse, read-out: Cmax) turned out to be 69 ng/mL.

Turning to `COc1cc(C(F)(F)F)ccc1CCNC(=O)[C@@H]1CCCN(c2cc(N3CCC(CCO)CC3)nc(C(F)(F)F)n2)C1` [Compound 332, (R)-1-(6-(4-(2-hydroxyethyl)piperidin-1-yl)-2-(trifluoromethyl)pyrimidin-4-yl)-N-(2-methoxy-4-(trifluoromethyl)-phenethyl)piperidine-3-carboxamide], the 50% effective concentration (EC50) at mouse TGR5 receptor and on human TGR5 receptor was under 100 nM each time. Further, in data set [1] (mouse, read-out: Cmax), the Cmax amounted to 37 ng/mL.

For the compound `O=C(CCCC1CCN(c2cc(N3CCC[C@H]3C(=O)NCCc3ccc(C(F)(F)F)cc3)nc(C(F)(F)F)n2)CC1)NCCNc1ncnc2[nH]cnc12` [Compound 95, (S)-1-(6-(4-(4-((2-((9H-purin-6-yl)amino)ethyl)amino)-4-oxobutyl)piperidin-1-yl)-2-(trifluoromethyl)pyrimidin-4-yl)-N-(4-(trifluoromethyl)phenethyl)pyrrolidine-2-carboxamide], the half-maximal effective concentration (EC50) at mouse TGR5 receptor and on human TGR5 receptor was under 100 nM throughout. For the same compound, the Cmax in data set [1] (mouse, read-out: Cmax) worked out at 2 ng/mL.

As to `N#Cc1ccc(CCNC(=O)[C@@H]2CCCN2c2cc(N3CCC(CCNS(=O)(=O)CCN)CC3)nc(C(F)(F)F)n2)cc1` [Compound 116, (S)-1-(6-(4-(2-(2-aminoethylsulfonamido)ethyl)piperidin-1-yl)-2-(trifluoromethyl)-pyrimidin-4-yl)-N-(4-cyanophenethyl)pyrrolidine-2-carboxamide], the EC50 on mouse TGR5 receptor and at human TGR5 receptor was under 100 nM throughout. For the same compound, the Cmax in data set [1] (mouse, read-out: Cmax) is 15 ng/mL.

As to `C[N+](C)(C)CCC[C@H](NC(=O)CCCC1CCN(c2cc(N3CCC[C@H]3C(=O)NCCc3ccc(C#N)cc3)nc(C(F)(F)F)n2)CC1)C(=O)O` [Compound 105, (S)-4-carboxy-4-(4-(1-(6-((S)-2-((4-cyanophenethyl)carbamoyl)pyrrolidin-1-yl)-2-(trifluoromethyl)pyrimidin-4-yl)piperidin-4-yl)butanamido)-N,N,N-trimethylbutan-1-aminium], the EC50 on mouse TGR5 receptor and on human TGR5 receptor was under 100 nM each time. Besides, the maximum concentration (Cmax) in data set [1] (mouse, read-out: Cmax) turned out to be 51 ng/mL.

For the compound `O=C(CCCC1CCN(c2cc(N3CCC[C@H]3C(=O)NCCc3ccc(C(F)(F)F)cc3)nc(C(F)(F)F)n2)CC1)NCCNS(=O)(=O)c1ccc(C(=O)O)cc1` [Compound 94, (S)-4-(N-(2-(4-(1-(2-(trifluoromethyl)-6-(2-((4-(trifluoromethyl)phenethyl)-carbamoyl)-pyrrolidin-1-yl)pyrimidin-4-yl)piperidin-4-yl)butanamido)ethyl)-sulfamoyl)benzoic acid], the concentration for a half-maximal effect (EC50) at mouse TGR5 receptor and at human TGR5 receptor was under 100 nM throughout. Also, in data set [1] (mouse, read-out: Cmax), the peak concentration (Cmax) was found to be 26 ng/mL.

With `N=C(N)NCCC[C@H](NC(=O)CCC1CCN(c2cc(N3CC[C@H]3C(=O)NCCc3ccc(C(F)(F)F)cc3)nc(C(F)(F)F)n2)CC1)C(=O)O` [Compound 258, (S)-5-guanidino-2-(3-(1-(2-(trifluoromethyl)-6-((S)-2-((4-(trifluoromethyl)phenethyl)carbamoyl)azetidin-1-yl)pyrimidin-4-yl)piperidin-4-yl)propanamido)pentanoic acid], the EC50 at mouse TGR5 receptor and on human TGR5 receptor was under 100 nM in each case. Besides, the Cmax in data set [1] (mouse, read-out: Cmax) stood at 42 ng/mL.

As for `N#Cc1ccc(CCNC(=O)[C@@H]2CCCN2c2cc(N3CCC(CCNC(=O)N[C@@H](CCCNC(=N)N)C(=O)O)CC3)nc(C(F)(F)F)n2)cc1` [Compound 83, (S)-2-(3-(2-(1-(6-((S)-2-((4-cyanophenethyl)carbamoyl)pyrrolidin-1-yl)-2-(trifluoromethyl)pyrimidin-4-yl)piperidin-4-yl)ethyl)ureido)-5-guanidinopentanoic acid], the concentration giving a half-maximal response (EC50) at mouse TGR5 receptor and on human TGR5 receptor was under 100 nM each time. Further, the Cmax in data set [1] (mouse, read-out: Cmax) turned out to be 2.5 ng/mL.

For `N#Cc1ccc(CCNC(=O)[C@@H]2CCN2c2cc(N3CCC(CCNS(=O)(=O)NCCC(=O)O)CC3)nc(C(F)(F)F)n2)cc1` [Compound 355], the 50% effective concentration (EC50) on mouse TGR5 receptor and on human TGR5 receptor was under 100 nM throughout. The highest concentration (Cmax) in data set [1] is recorded as 48 ng/mL.

For the origin of these results see patent publication US10654834B2 (Venenum Biodesign, LLC, priority 2016, dated 2020).
